Measured values as given in ChEMBL document CHEMBL1201862, “PubChem BioAssay data set” (2004).
The source made the active and inactive calls.

Key:
[1] = cytotoxicity toward NIH3T3 fibroblasts, dose response, counter-screen, cell-based, ATP luminescence, mouse fibroblasts (AID 2010); format: functional;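 further: cells exposed to compound for about 90 hours before reading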
[2] = target: 1-phosphatidylinositol 4,5-bisphosphate phosphodiesterase beta-3 (Homo sapiens, UniProt Q01970); test: Fluorescence-based biochemical high throughput dose response assay to identify inhibitors of phospholipase C isozymes (PLC-B3).
Chain of 1-phosphatidylinositol 4,5-bisphosphate phosphodiesterase beta-3 (Q01970 whole entry): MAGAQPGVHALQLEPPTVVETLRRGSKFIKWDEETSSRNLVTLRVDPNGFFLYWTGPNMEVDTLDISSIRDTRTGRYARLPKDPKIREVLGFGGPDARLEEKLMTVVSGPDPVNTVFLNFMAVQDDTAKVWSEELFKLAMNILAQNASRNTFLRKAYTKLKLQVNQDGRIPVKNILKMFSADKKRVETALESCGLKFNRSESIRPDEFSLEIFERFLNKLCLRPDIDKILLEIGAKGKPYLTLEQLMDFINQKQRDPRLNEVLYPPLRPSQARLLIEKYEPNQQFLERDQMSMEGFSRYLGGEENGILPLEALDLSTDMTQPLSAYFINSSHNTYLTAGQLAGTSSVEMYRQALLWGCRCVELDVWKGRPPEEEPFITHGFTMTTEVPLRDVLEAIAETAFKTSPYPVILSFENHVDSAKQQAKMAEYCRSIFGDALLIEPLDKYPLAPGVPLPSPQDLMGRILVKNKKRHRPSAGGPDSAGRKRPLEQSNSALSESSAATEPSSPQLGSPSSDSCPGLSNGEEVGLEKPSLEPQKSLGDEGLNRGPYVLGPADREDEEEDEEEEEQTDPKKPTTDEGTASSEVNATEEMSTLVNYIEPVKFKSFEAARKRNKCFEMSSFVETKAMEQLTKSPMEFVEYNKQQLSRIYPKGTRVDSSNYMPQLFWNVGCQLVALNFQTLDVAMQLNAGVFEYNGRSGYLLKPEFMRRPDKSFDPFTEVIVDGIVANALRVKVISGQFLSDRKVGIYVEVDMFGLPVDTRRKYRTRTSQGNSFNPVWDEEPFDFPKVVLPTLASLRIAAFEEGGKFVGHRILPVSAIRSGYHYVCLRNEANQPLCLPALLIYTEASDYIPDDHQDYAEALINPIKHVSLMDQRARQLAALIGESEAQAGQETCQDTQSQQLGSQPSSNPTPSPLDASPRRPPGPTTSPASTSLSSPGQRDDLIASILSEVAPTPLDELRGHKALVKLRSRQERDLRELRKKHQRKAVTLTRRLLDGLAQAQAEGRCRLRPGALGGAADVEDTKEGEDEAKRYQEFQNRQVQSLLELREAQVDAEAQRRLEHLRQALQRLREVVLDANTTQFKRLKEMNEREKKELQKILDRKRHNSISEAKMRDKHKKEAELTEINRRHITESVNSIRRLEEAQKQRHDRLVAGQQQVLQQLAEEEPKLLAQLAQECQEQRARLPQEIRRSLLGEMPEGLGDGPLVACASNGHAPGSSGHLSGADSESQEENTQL

[3] = target: 1-phosphatidylinositol 4,5-bisphosphate phosphodiesterase gamma-1 (Homo sapiens, UniProt P19174); test: Counterscreen for inhibitors of phospholipase C isozymes (PLC-B3): Fluorescence-based biochemical high throughput dose response assay to identify inhibitors of phospholipase C isozymes (PLC-gamma1).
Chain of 1-phosphatidylinositol 4,5-bisphosphate phosphodiesterase gamma-1 (P19174 whole entry): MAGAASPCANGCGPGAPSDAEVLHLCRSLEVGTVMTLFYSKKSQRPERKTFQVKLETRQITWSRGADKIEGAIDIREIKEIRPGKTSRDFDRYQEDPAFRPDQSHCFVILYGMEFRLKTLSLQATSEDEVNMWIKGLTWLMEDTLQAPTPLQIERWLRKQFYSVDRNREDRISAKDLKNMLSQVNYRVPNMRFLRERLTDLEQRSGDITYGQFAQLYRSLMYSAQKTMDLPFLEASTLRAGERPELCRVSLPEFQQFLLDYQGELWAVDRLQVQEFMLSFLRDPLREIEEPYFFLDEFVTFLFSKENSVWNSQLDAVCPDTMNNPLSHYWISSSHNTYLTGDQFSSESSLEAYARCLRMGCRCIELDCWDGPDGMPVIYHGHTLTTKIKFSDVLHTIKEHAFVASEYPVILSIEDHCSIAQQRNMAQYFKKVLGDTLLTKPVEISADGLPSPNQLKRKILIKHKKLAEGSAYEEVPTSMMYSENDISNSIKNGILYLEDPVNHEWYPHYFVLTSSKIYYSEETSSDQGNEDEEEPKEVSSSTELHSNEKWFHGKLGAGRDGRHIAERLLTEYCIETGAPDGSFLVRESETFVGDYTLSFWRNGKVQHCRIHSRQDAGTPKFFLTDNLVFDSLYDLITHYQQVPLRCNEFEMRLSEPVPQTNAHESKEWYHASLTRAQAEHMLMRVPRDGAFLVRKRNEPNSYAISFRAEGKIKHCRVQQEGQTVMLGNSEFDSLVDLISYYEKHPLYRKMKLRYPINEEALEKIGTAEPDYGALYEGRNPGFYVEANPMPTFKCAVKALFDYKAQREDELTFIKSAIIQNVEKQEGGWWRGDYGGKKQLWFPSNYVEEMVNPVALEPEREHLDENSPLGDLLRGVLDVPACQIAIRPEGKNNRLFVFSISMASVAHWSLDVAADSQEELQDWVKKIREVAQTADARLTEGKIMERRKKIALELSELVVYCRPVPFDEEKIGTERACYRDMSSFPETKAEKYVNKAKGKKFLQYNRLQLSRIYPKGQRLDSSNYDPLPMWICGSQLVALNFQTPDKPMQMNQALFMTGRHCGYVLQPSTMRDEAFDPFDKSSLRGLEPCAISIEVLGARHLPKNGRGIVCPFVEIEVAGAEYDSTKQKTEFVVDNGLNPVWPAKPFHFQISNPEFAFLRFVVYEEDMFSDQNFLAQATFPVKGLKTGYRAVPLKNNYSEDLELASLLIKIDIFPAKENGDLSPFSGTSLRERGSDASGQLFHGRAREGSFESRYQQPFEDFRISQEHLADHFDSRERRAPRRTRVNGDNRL

[4] = target: T1, Sentrin-specific protease 6 (Homo sapiens, UniProt Q9GZR1); format: functional;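 further: Luminescence-based dose-response confirmatory assay of SENP6 inhibition, following up an ultra-high-throughput screen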
T1 sequence (Q9GZR1 whole entry): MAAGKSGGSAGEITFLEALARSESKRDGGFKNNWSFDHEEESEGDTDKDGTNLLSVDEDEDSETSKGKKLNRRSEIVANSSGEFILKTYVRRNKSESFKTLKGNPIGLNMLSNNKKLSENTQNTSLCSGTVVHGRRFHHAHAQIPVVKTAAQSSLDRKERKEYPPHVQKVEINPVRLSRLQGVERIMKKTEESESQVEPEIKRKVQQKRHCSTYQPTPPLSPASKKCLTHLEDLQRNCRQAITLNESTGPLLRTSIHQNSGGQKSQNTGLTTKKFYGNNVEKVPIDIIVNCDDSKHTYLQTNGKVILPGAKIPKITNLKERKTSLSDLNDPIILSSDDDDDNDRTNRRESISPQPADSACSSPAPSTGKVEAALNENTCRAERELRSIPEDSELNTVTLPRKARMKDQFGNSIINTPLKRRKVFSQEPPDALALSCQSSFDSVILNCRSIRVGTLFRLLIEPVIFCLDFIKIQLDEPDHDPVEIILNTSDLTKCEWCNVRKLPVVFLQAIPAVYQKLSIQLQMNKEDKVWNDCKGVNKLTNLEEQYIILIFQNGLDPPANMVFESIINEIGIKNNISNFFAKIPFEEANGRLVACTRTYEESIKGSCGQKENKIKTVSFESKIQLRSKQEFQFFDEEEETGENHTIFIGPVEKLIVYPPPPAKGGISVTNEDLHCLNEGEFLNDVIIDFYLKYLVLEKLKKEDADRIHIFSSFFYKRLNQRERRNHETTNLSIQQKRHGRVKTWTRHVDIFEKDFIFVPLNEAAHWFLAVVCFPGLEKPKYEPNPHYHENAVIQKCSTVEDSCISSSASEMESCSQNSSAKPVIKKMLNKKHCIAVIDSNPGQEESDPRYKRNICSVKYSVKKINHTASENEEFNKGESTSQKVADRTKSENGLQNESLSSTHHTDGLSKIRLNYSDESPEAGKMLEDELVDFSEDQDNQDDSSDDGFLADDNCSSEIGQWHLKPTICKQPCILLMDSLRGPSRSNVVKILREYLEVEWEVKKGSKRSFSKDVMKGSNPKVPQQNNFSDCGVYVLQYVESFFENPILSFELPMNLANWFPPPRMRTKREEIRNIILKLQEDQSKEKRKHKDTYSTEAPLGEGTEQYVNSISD

With COC(=O)[C@@H]1[C@@H](C(=O)OC)C2(c3ccccc3-c3ccccc32)N(c2ccc(Cl)cc2)N1C#N the EC50 [1] was 6.87 µM (active).
With Nc1ccc2c(c1)C(=O)C(=O)c1ccccc1-2 the IC50 [2] was > 122 µM (inactive) and the IC50 [3] was 5.14 µM (active).
For COc1ccc(OC)c(Nc2cc3ccccc3c(O)n2)c1, the IC50 [4] was < 1.55 µM (active).
For O=C(O)c1ccc(NC2=C/C(=N/S(=O)(=O)c3ccccc3)c3ccccc3C2=O)cc1, the IC50 [2] was > 122 µM (inactive), the IC50 [4] was 0.743 µM (active) and the IC50 [3] was 45.5 µM (inactive).
In the case of CCCC(=O)NC(c1ccccc1OC)c1ccc2cccnc2c1O (stereo not drawn), the EC50 [1] is reported as 1.55 µM (active).
